Assays:
Homo sapiens [1] = organism: Homo sapiens; assay: Liver toxicity in human assessed as induction of drug-induced liver injury by measuring severity class index
Homo sapiens [2] = organism: Homo sapiens; assay: Liver toxicity in human assessed as induction of drug-induced liver injury by measuring verified drug-induced liver injury concern status
Throughout, for DILI severity class: key of the grades not given here.

Compound	DILI_severity_class (Homo sapiens [1])	DILI_Concern (Homo sapiens [2])
C#C[C@]1(O)CC[C@H]2[C@@H]3CCC4=Cc5oncc5C[C@]4(C)[C@H]3CC[C@@]21C [DANAZOL]	8	Most-Dili-Concern
CN1C(=O)CC(C)(c2ccccc2)C1=O (centres undefined) [METHSUXIMIDE]	0	No-Dili-Concern
CN1CC[C@]23c4c5ccc(O)c4O[C@H]2[C@@H](O)C=C[C@H]3[C@H]1C5 [MORPHINE]	0	No-Dili-Concern
NCC(CC(=O)O)c1ccc(Cl)cc1 (centres undefined) [BACLOFEN]	3	Less-Dili-Concern
CO[C@H]1/C=C/O[C@@]2(C)Oc3c(C)c(O)c4c(O)c(c(/C=N/N5CCN(C)CC5)c(O)c4c3C2=O)NC(=O)/C(C)=C\C=C\[C@H](C)[C@H](O)[C@@H](C)[C@@H](O)[C@@H](C)[C@H](OC(C)=O)[C@@H]1C [RIFAMPIN]	8	Most-Dili-Concern
CC(C)C(=O)Nc1ccc([N+](=O)[O-])c(C(F)(F)F)c1 [FLUTAMIDE]	8	Most-Dili-Concern
COC(=O)[C@H]1[C@H]2C[C@@H]3c4[nH]c5cc(OC)ccc5c4CCN3C[C@H]2C[C@@H](OC(=O)c2cc(OC)c(OC)c(OC)c2)[C@@H]1OC [RESERPINE]	0	No-Dili-Concern
OC[C@@H](O)[C@@H](O)[C@H](O)[C@@H](O)CO [SORBITOL]	0	No-Dili-Concern
Cc1ccc(O)c([C@H](CCN(C(C)C)C(C)C)c2ccccc2)c1 [TOLTERODINE]	0	No-Dili-Concern
COc1cc(NC(C)CCCN)c2ncccc2c1 (centres undefined) [PRIMAQUINE]	0	No-Dili-Concern
CC(=O)Nc1nnc(S(N)(=O)=O)s1 [ACETAZOLAMIDE]	8	Most-Dili-Concern
O=C1CCc2ccc(OCCCCN3CCN(c4cccc(Cl)c4Cl)CC3)cc2N1 [ARIPIPRAZOLE]	5	Ambiguous-Dili-Concern
COc1ccc(Cc2nccc3cc(OC)c(OC)cc23)cc1OC [PAPAVERINE]	5	Most-Dili-Concern
NCCc1c[nH]cn1.O=P(O)(O)O.O=P(O)(O)O [HISTAMINE PHOSPHATE]	0	No-Dili-Concern
C#Cc1cccc(Nc2ncnc3cc(OCCOC)c(OCCOC)cc23)c1 [ERLOTINIB]	8	Most-Dili-Concern
C[C@](N)(Cc1ccc(O)cc1)C(=O)O [METYROSINE]	0	No-Dili-Concern

Compound	DILI_severity_class (Homo sapiens [1])	DILI_Concern (Homo sapiens [2])
CC1=C(CC(=O)O)c2cc(F)ccc2/C1=C\c1ccc([S+](C)[O-])cc1 (centres undefined)	8	Most-Dili-Concern
CN(C)CCc1c[nH]c2ccc(CS(=O)(=O)N3CCCC3)cc12 [ALMOTRIPTAN]	0	No-Dili-Concern
CCCCN1C(=O)[C@@H]([C@H](O)C2CCCCC2)NC(=O)C12CCN(Cc1ccc(Oc3ccc(C(=O)O)cc3)cc1)CC2 [APLAVIROC]	8	Most-Dili-Concern
Cl.NCCNCCNCCN	1	No-Dili-Concern
O=C(O)c1cc(/N=N/c2ccc(O)c(C(=O)O)c2)ccc1O [OLSALAZINE]	8	Less-Dili-Concern
Cc1ccsc1C(=CCCN1CCC[C@@H](C(=O)O)C1)c1sccc1C [TIAGABINE]	3	Ambiguous-Dili-Concern
CC(C)(S)[C@@H](N)C(=O)O [PENICILLAMINE]	2	Less-Dili-Concern
CN(C/C=C/C#CC(C)(C)C)Cc1cccc2ccccc12 [TERBINAFINE]	8	Most-Dili-Concern
Cc1cn([C@H]2C=C[C@@H](CO)O2)c(=O)[nH]c1=O [STAVUDINE]	8	Most-Dili-Concern
COCCCC/C(=N\OCCN)c1ccc(C(F)(F)F)cc1 [FLUVOXAMINE]	3	Ambiguous-Dili-Concern
O=S([O-])([O-])=S.[Na+].[Na+]	0	No-Dili-Concern
O=C1CCC(N2C(=O)c3ccccc3C2=O)C(=O)N1 (centres undefined) [THALIDOMIDE]	4	Less-Dili-Concern
CC1=C(/C=C/C(C)=C/C=C/C(C)=C/CO)C(C)(C)CCC1 [RETINOL]	3	Less-Dili-Concern
IVERMECTIN	3	Less-Dili-Concern
CN(CCOc1ccc(NS(C)(=O)=O)cc1)CCc1ccc(NS(C)(=O)=O)cc1 [DOFETILIDE]	0	No-Dili-Concern
C[N+](C)(C)CC(=O)O [BETAINE]	0	No-Dili-Concern
